From patent publication US10577356B2, “Beta-arrestin-biased cannabinoid CB1 receptor agonists and methods for making and using them” (priority 2014, dated 2020)
Entries after “also recorded” stand apart in the source; their conditions may differ.

Assays:
[1] = target: T1, CB1 (Homo sapiens, UniProt P21554); assay: GTPγS stimulation levels in hCB1/HEK cells (FIG. 9); type: biochemical; parameters: expressed in transfected cells; host or cells: HEK cells (hCB1/HEK); settings: compound applied alone
Protocol: (§1) Compounds were tested using a GTPγS assay as previously described (Shore D M, et al. J Biol Chem. 2014; 289(9):5828-45; incorporated herein by reference in its entirety). Compounds were tested using an ERK assay as previously described (Kapur A, et al. J Biol Chem. 2009; 284:29817-29827; incorporated herein by reference in its entirety).
Target sequence in this assay (P21554 whole entry): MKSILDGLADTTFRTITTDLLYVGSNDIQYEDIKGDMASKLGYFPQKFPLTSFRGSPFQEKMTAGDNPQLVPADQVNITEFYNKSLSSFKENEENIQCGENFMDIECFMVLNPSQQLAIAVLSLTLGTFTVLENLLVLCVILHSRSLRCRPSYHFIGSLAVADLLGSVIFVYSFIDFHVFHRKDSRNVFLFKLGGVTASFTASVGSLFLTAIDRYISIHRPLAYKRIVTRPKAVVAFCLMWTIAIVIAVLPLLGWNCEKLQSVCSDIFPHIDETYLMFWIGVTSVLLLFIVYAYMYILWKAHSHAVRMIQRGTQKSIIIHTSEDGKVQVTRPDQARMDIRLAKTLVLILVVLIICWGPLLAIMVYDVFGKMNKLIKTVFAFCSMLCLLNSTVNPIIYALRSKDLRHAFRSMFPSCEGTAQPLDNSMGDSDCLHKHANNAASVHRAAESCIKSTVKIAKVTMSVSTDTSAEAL

[2] = target: T2, CB1 (Mus musculus, UniProt P47746); assay: Basal G protein signaling, GTP-gamma-S binding, compound applied alone, membranes (FIG. 4-7); type: biochemical
T2 construct: from tissue
Protocol: as §1

[3] = target: T1, CB1; assay: Antagonism of CP55,940's [35S]GTPγS signaling / allosteric modulation of CB1 (FIG. 3); type: biochemical; settings: compared with ORG27569
Protocol: as §1
Target sequence in this assay (P21554 whole entry, species assumed): as the sequence (P21554 whole entry) above

[4] = target: T1, CB1; assay: Effect on CP55,940 binding (Bmax) at CB1 (FIG. 3); settings: compared with ORG27569
Target sequence in this assay (P21554 whole entry, species assumed): as the sequence (P21554 whole entry) above

[5] = target: T1, CB1; assay: ERK assay, pERK production in cells (FIG. 8, FIG. 10); type: cell-based; settings: compound applied alone
Protocol: as §1
Target sequence in this assay (P21554 whole entry, species assumed): as the sequence (P21554 whole entry) above

T2 sequence (P47746 whole entry): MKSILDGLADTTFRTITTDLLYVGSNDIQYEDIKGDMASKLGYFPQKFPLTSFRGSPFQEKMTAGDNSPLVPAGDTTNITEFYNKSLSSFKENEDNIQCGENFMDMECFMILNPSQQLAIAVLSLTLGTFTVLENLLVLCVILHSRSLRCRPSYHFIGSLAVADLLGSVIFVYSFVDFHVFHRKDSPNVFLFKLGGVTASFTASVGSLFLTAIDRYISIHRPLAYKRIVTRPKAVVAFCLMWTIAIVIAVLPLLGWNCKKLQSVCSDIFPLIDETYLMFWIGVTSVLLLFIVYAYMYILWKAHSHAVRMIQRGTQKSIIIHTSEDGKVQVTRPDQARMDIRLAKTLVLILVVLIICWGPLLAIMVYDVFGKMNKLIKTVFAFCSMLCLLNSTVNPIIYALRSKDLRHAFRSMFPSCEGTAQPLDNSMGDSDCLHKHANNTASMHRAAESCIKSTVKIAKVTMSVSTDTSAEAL

Row | Structure (SMILES) | GTP-gamma-S binding at the human CB1 receptor [1] | effect on basal G protein signaling (GTP-gamma-S binding) [2] | allosteric modulation of CB1 (effects on binding and G protein-mediated signaling) [3] | antagonism of CP55,940's [35S]GTPλS signaling [3] | effect on CP55,940's Bmax [4] | ERK signaling / pERK production [5]
1 | CCc1c(C(=O)NCCc2ccc(N3CCCCC3)cc2)[nH]c2ccc(Cl)cc12 [ORG27569, reference compound] | causes a decrease (including below basal) |  |  |  |  | 
2 | CCc1c(C(=O)NC[C@@H](O)c2ccc(N3CCCCC3)cc2)[nH]c2ccc(Cl)cc12 [Compound 1, 5-Chloro-3-ethyl-N-[(2S)-2-hydroxy-2-[4-(piperidin-1-yl)phenyl]ethyl]-1H-indole-2-carboxamide] |  | no effect on GTP-gamma-S binding; also recorded: does not act as an inverse agonist of [^35S]GTPλS signaling | less potent and efficacious negative allosteric modulator of CB1 than ORG27569 | does not antagonize CP55,940's [^35S]GTPλS signaling as well as ORG27569 | does not improve CP55,940's Bmax as well as ORG27569 | 
3 | O=C(NCCc1ccc(N2CCCCC2)cc1)c1[nH]c2ccc(Cl)cc2c1Cc1ccccc1 [Compound 4, 3-Benzyl-5-chloro-N-{2-[4-(piperidin-1-yl)phenyl]ethyl}-1H-indole-2-carboxamide] |  | no effect on GTP-gamma-S binding; also recorded: does not act as an inverse agonist of [^35S]GTPλS signaling |  | antagonized CP55,940's [^35S]GTPλS signaling as well as ORG27569 | did not affect CP55,940's Bmax | may act as a weak inverse agonist of ERK signaling
4 | CCc1c(C(=O)NCCc2ccc(N3CCCCC3)cc2C2CC2)[nH]c2ccc(Cl)cc12 [Compound 3, 5-Chloro-N-{2-[2-cyclopropyl-4-(piperidin-1-yl)phenyl]ethyl}-3-ethyl-1H-indole-2-carboxamide] | no effect on GTP-gamma-S binding; also recorded: did not have any significant effect on [^35S]GTPλS signaling when applied alone | no effect on GTP-gamma-S binding | does not act as an allosteric modulator of CB1 |  | does not improve CP55,940's Bmax (and may actually reduce it) | robust effect, particularly at early time points, compared to CP (CP55,940); also recorded: does generate an ERK signal
5 | CCCCCCC(C)(C)c1ccc([C@@H]2C[C@H](O)CC[C@H]2CCCO)c(O)c1 [CP55940, reference compound] | causes a rise in GTP-gamma-S binding |  |  |  |  | 
6 | CCc1c(C(=O)NC[C@H](O)c2ccc(N3CCCCC3)cc2)[nH]c2ccc(Cl)cc12 [Compound 2, 5-Chloro-3-ethyl-N-[(2R)-2-hydroxy-2-[4-(piperidin-1-yl)phenyl]ethyl]-1H-indole-2-carboxamide] |  | partial agonist in membranes; also recorded: does not act as an inverse agonist of [^35S]GTPλS signaling; also recorded: may act as a weak agonist of G protein-mediated signaling | more potent negative allosteric modulator than ORG27569 | antagonizes CP55,940's [^35S]GTPλS signaling as well as ORG27569 | improves CP55,940's Bmax better than as ORG27569 | 
